Source: PMC11530130, “Peripherally restricted PICK1 inhibitor mPD5 ameliorates pain behaviors in murine inflammatory and neuropathic pain models” (JCI Insight, 2024)
Where “and” joins values, the source holds several entries; their conditions need not be identical. Equal entries are not always repeated.

Test system: mice, CFA model of inflammatory pain
Assay: CFA model, marble-burying test
Assay type: in vivo, mouse
Procedure: Induction of inflammatory pain (CFA model).
Injury was induced on the right hind paw, whereas the contralateral left hind paw was used as internal control of the C57BL/6J male and female mice (Janvier, France). The inflammatory pain was induced by injection of 50 μL undiluted Complete Freund’s Adjuvant (CFA) (F5881, Sigma) unilaterally into the intraplantar surface of the right hind paw, whereas control mice were injected with the same amount of 0.9 % saline (B. Braun, Germany). All intraplantar injections were performed with an insulin needle (0.3 mL BD Micro-Fine) while the animal was under isoflurane anaesthesia (2%) for maximum 60 seconds. Von Frey was applied up to 11 days after unilateral CFA injection depending on the experiment. […]
For the first experiment with sustained administration of mPD5 (Figure 7C), the mice underwent a baseline von Frey reading as described in the “Mechanically-evoked pain (von Frey).”-section and SNI surgery as described in “Induction of neuropathic pain (SNI model).”-section. […] At 4,5 hours after the 10 μmol/kg mPD5 injection paw withdrawal threshold was measured again followed by a s.c. injection of 2 μmol/kg mPD5 in all animals. The PWT was measured again at 6 hours +7 hours + 8 hours + 9 hours + 10 hours + 11 hours + 22 hours + 23 hours + 25 hours + 27 hours + 49 hours + 121 hours after the initial 10 μmol/kg mPD5 injection performed on day 125. […]

For `CCCCCCCCCCCCCC(=O)N(CCOCCOCCC(=O)N[C@@H](Cc1c[nH]cn1)C(=O)N[C@@H](Cc1c[nH]c2ccccc12)C(=O)N[C@@H](CC(C)C)C(=O)N[C@@H](CCCCN)C(=O)N[C@H](C(=O)O)C(C)C)CCOCCOCCC(=O)N[C@@H](Cc1c[nH]cn1)C(=O)N[C@@H](Cc1c[nH]c2ccccc12)C(=O)N[C@@H](CC(C)C)C(=O)N[C@@H](CCCCN)C(=O)N[C@H](C(=O)O)C(C)C` [mPD5, myristoyl-NPEG4-(HWLKV)2], which “effect on CFA-induced decrease in marble burying” value (10 μmol/kg, to the level of the naive mice) is on record?
Its value is “reverted significantly”.

And the “marbles buried, individual mice” value (1 hour after s.c. 10 μmol/kg)?
Its value is 6 and 9 and 10 and 11 and 7 and 4 and 5.
